Several values for one entry are separate records, joined by “and”; a condition that tells them apart may be missing. Equal entries are not always repeated.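 Test compounds were applied to cells in 96-well plates for 48 hours at 5 doses. GI50 marks 50% less growth. TGI: concentration producing complete growth inhibition.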
What was measured:
Test in all cases: DTP human tumour cell line panel, 48 h
SF-539 CNS = tested on: SF-539 CNS
UACC-257 melanoma = tested on: UACC-257 melanoma
EKVX NSCLC = tested on: EKVX NSCLC
ACHN renal = tested on: ACHN renal
DU-145 prostate = tested on: DU-145 prostate
A549 NSCLC = tested on: A549 NSCLC
UACC-62 melanoma = tested on: UACC-62 melanoma
HL-60(TB) leukemia = tested on: HL-60(TB) leukemia
SK-MEL-5 melanoma = tested on: SK-MEL-5 melanoma
OVCAR-3 ovarian = tested on: OVCAR-3 ovarian

Q: Which results are given for COc1cc2c(cc1OCCCCCOc1ccc(-n3c(C)nc4ccccc4c3=O)cc1)N=C[C@@H]1CCCN1C2=O?
A: GI50 (SF-539 CNS): 0.285 µM; TGI (SF-539 CNS): 0.728 µM; GI50 (UACC-257 melanoma): 0.434 µM; TGI (UACC-257 melanoma): 1.48 µM; GI50 (EKVX NSCLC): 0.778 µM; TGI (EKVX NSCLC): 4.77 µM; GI50 (ACHN renal): 0.342 µM; TGI (ACHN renal): 1.53 µM; GI50 (DU-145 prostate): 0.41 µM; TGI (DU-145 prostate): 3.74 µM; GI50 (A549 NSCLC): 0.276 µM; TGI (A549 NSCLC): 0.982 µM; GI50 (UACC-62 melanoma): 0.171 µM; TGI (UACC-62 melanoma): 0.336 µM; GI50 (HL-60(TB) leukemia): 0.34 µM; TGI (HL-60(TB) leukemia): 1.3 µM; GI50 (SK-MEL-5 melanoma): 0.176 µM; TGI (SK-MEL-5 melanoma): 0.353 µM; GI50 (OVCAR-3 ovarian): 0.346 µM; TGI (OVCAR-3 ovarian): 15.5 µM

Q: What does the source list for COc1ccc(C(=O)/C=C/c2ccc3c(c2)OCO3)c(OCc2ccccc2)c1?
A: TGI (SF-539 CNS): > 100 µM; TGI (UACC-257 melanoma): > 100 µM; TGI (EKVX NSCLC): > 100 µM; TGI (ACHN renal): > 100 µM; TGI (DU-145 prostate): > 100 µM; TGI (A549 NSCLC): > 100 µM; TGI (UACC-62 melanoma): > 100 µM; TGI (HL-60(TB) leukemia): 6.47 µM; TGI (SK-MEL-5 melanoma): > 100 µM; TGI (OVCAR-3 ovarian): > 100 µM

Q: With CNC(=O)CC1NC(=O)c2csc(n2)-c2ccc(-c3nc(C4=NC(C(=O)N5CCCC5C(N)=O)CO4)cs3)nc2-c2csc(n2)-c2csc(n2)C(C(C)C)NC(=O)CNC(=O)c2csc(n2)C(C(C)C)NC(=O)c2nc1sc2C (stereo unspecified) as the molecule, how does the GI50 (SF-539 CNS) read?
A: > 25 µM

Q: What about the GI50 (UACC-257 melanoma) of the same molecule?
A: > 25 µM

Q: And the TGI (UACC-257 melanoma)?
A: > 25 µM

Q: What about the GI50 (EKVX NSCLC) of the same molecule?
A: > 25 µM

Q: What about the TGI (EKVX NSCLC) of the same molecule?
A: > 25 µM

Q: What about the GI50 (ACHN renal) of the same molecule?
A: > 25 µM

Q: And the TGI (ACHN renal)?
A: > 25 µM

Q: And the GI50 (DU-145 prostate)?
A: > 25 µM

Q: What about the TGI (DU-145 prostate) of the same molecule?
A: > 25 µM

Q: And the GI50 (A549 NSCLC)?
A: > 25 µM

Q: And the TGI (A549 NSCLC)?
A: > 25 µM

Q: And the GI50 (UACC-62 melanoma)?
A: > 25 µM

Q: And the TGI (UACC-62 melanoma)?
A: > 25 µM

Q: What about the GI50 (HL-60(TB) leukemia) of the same molecule?
A: < 0.001 µM

Q: What about the GI50 (SK-MEL-5 melanoma) of the same molecule?
A: > 25 µM

Q: And the TGI (SK-MEL-5 melanoma)?
A: > 25 µM

Q: And the TGI (OVCAR-3 ovarian)?
A: 0.937 µM

Q: For COC(=O)CCC1CCC(c2cc(F)ccc2F)(S(=O)(=O)c2ccc(Cl)cc2)CC1 (stereo unspecified), which GI50 (SF-539 CNS) is on record?
A: > 100 µM

Q: And the TGI (SF-539 CNS)?
A: > 100 µM

Q: And the GI50 (UACC-257 melanoma)?
A: 48.9 µM

Q: What about the TGI (UACC-257 melanoma) of the same molecule?
A: > 100 µM

Q: What about the GI50 (EKVX NSCLC) of the same molecule?
A: 61.2 µM

Q: What about the TGI (EKVX NSCLC) of the same molecule?
A: > 100 µM

Q: And the GI50 (ACHN renal)?
A: > 100 µM

Q: What about the TGI (ACHN renal) of the same molecule?
A: > 100 µM

Q: And the GI50 (DU-145 prostate)?
A: > 100 µM

Q: What about the TGI (DU-145 prostate) of the same molecule?
A: > 100 µM

Q: And the GI50 (A549 NSCLC)?
A: 64.4 µM

Q: And the TGI (A549 NSCLC)?
A: > 100 µM

Q: What about the GI50 (UACC-62 melanoma) of the same molecule?
A: 69.4 µM

Q: And the TGI (UACC-62 melanoma)?
A: > 100 µM

Q: What about the GI50 (HL-60(TB) leukemia) of the same molecule?
A: 45.3 µM

Q: And the TGI (HL-60(TB) leukemia)?
A: > 100 µM

Q: What about the GI50 (SK-MEL-5 melanoma) of the same molecule?
A: 28.4 µM

Q: What about the TGI (SK-MEL-5 melanoma) of the same molecule?
A: > 100 µM

Q: What about the GI50 (OVCAR-3 ovarian) of the same molecule?
A: 83.7 µM

Q: What about the TGI (OVCAR-3 ovarian) of the same molecule?
A: > 100 µM

Q: Which TGI (SF-539 CNS) does the source give for CCN(CC)CCn1c2ccccc2c(=O)c2c(O)ccc(O)c21 here?
A: 50.3 µM

Q: And the TGI (UACC-257 melanoma)?
A: 60.6 µM

Q: What about the TGI (EKVX NSCLC) of the same molecule?
A: > 46.4 µM

Q: And the TGI (ACHN renal)?
A: 57.8 µM

Q: And the TGI (DU-145 prostate)?
A: > 100 µM

Q: What about the TGI (A549 NSCLC) of the same molecule?
A: > 100 µM

Q: And the TGI (UACC-62 melanoma)?
A: 52.8 µM

Q: And the TGI (HL-60(TB) leukemia)?
A: 46.8 µM

Q: What about the TGI (SK-MEL-5 melanoma) of the same molecule?
A: 45.5 µM

Q: And the TGI (OVCAR-3 ovarian)?
A: 47.6 µM

Q: What does the source list for Cc1cc(Cc2cc(C)cc(C(C)(C)C)c2O)c(O)c(Cc2cc(C)cc(C(C)(C)C)c2O)c1?
A: TGI (SF-539 CNS): 6.54 µM; TGI (UACC-257 melanoma): 5.3 µM; TGI (EKVX NSCLC): 9 µM; TGI (ACHN renal): 11.3 µM; TGI (DU-145 prostate): 13.7 µM; TGI (A549 NSCLC): 11.3 µM; TGI (UACC-62 melanoma): 4.53 µM; TGI (HL-60(TB) leukemia): 5.23 µM; TGI (SK-MEL-5 melanoma): 2.62 µM; TGI (OVCAR-3 ovarian): 10.4 µM

Q: Which GI50 (SF-539 CNS) does the source give for CC1(O)CC(c2nc(-c3ccc4ccc(-c5ccccc5)nc4c3)c3c(N)nccn23)C1 (stereo unspecified) here?
A: 11.9 µM and > 10 µM

Q: What about the TGI (SF-539 CNS) of the same molecule?
A: 28.8 µM and > 10 µM

Q: What about the GI50 (UACC-257 melanoma) of the same molecule?
A: 5.68 µM and > 10 µM

Q: What about the TGI (UACC-257 melanoma) of the same molecule?
A: 48.2 µM and > 10 µM

Q: And the GI50 (EKVX NSCLC)?
A: 11.7 µM and > 10 µM

Q: And the TGI (EKVX NSCLC)?
A: > 100 µM

Q: And the GI50 (ACHN renal)?
A: 7.44 µM and 7.79 µM

Q: What about the TGI (ACHN renal) of the same molecule?
A: > 100 µM

Q: And the GI50 (DU-145 prostate)?
A: 7.4 µM and 8.12 µM

Q: And the TGI (DU-145 prostate)?
A: > 86.8 µM

Q: What about the GI50 (A549 NSCLC) of the same molecule?
A: 10.5 µM and > 10 µM

Q: And the TGI (A549 NSCLC)?
A: > 100 µM

Q: And the GI50 (UACC-62 melanoma)?
A: 10.8 µM and > 10 µM

Q: And the TGI (UACC-62 melanoma)?
A: 32.2 µM and > 10 µM

Q: What about the TGI (HL-60(TB) leukemia) of the same molecule?
A: 25.8 µM and > 10 µM

Q: What about the GI50 (SK-MEL-5 melanoma) of the same molecule?
A: 3.38 µM

Q: And the TGI (SK-MEL-5 melanoma)?
A: 14.9 µM

Q: And the GI50 (OVCAR-3 ovarian)?
A: 15 µM and > 10 µM

Q: What about the TGI (OVCAR-3 ovarian) of the same molecule?
A: 34.7 µM and > 10 µM

Reference: PubChem BioAssay (NCI)
